The values below come from PMC5218480 (PLoS ONE, 2017).

In the test the test system is MV-4-11 cells. Description: Gene expression microarray analysis (Affymetrix PrimeView) and GSEA. As to conditions: ProbeSet 11716999_a_at; LIST D. In kind it is cell-based, human. More on the design: RFU PODN (11730768_x_at) / Fold change /veh PODN (11730768_x_at) / RFU LINC00158 (11744669_a_at) / Fold change /veh LINC00158 (11744669_a_at) / RFU DUSP10 (11751237_a_at) / Fold change /veh DUSP10 (11751237_a_at) / RFU ID3 (11757404_x_at) / Fold change /veh ID3 (11757404_x_at) / RFU PLEKHG5 (11737974_s_at) / Fold change /veh PLEKHG5 (11737974_s_at) / RFU LRRC4B (11730491_at) / Fold change /veh LRRC4B (11730491_at) / RFU GIMAP4 (11747438_a_at) / Fold change /veh GIMAP4 (11747438_a_at) / RFU KRT8 (11758183_x_at) / Fold change /veh KRT8 (11758183_x_at) / RFU CNN1 (11734310_a_at) / Fold change /veh CNN1 (11734310_a_at) / RFU VPS37D (11726825_at) / Fold change /veh VPS37D (11726825_at) / RFU C10orf10 (11716522_x_at) / Fold change /veh C10orf10 (11716522_x_at) / RFU KIR2DL2 /// KIR2DL4 /// KIR2DL5A /// KIR2DL5B /// KIR2DS1 /// KIR2DS2 /// KIR2DS3 /// KIR2DS4 /// KIR3DL3 /// KIR3DL3 /// KIR3DS1 (11738374_at) / Fold change /veh KIR2DL2 /// KIR2DL4 /// KIR2DL5A /// KIR2DL5B /// KIR2DS1 /// KIR2DS2 /// KIR2DS3 /// KIR2DS4 /// KIR3DL3 /// KIR3DL3 /// KIR3DS1 (11738374_at) / RFU C1QL1 (11718748_at) / Fold change /veh C1QL1 (11718748_at) / RFU TMPRSS4 (11747572_a_at) / Fold change /veh TMPRSS4 (11747572_a_at) / RFU HAMP (11756126_x_at) / Fold change /veh HAMP (11756126_x_at) / RFU RNFT2 (11725882_a_at) / Fold change /veh RNFT2 (11725882_a_at) / RFU NR4A2 (11747474_a_at) / Fold change /veh NR4A2 (11747474_a_at) / RFU ABCC12 (11746883_a_at) / Fold change /veh ABCC12 (11746883_a_at) / RFU TMEM136 (11760407_x_at) / Fold change /veh TMEM136 (11760407_x_at) / RFU CLDN22 /// WWC2 (11732394_at) / Fold change /veh CLDN22 /// WWC2 (11732394_at) / RFU HLA-DPB1 (11760878_x_at) / Fold change /veh HLA-DPB1 (11760878_x_at) / RFU SPINT1 (11716480_a_at) / Fold change /veh SPINT1 (11716480_a_at) / RFU GAP43 (11754022_s_at) / Fold change /veh GAP43 (11754022_s_at) / RFU A4GNT (11735810_at) / Fold change /veh A4GNT (11735810_at) / RFU PRB3 (11715151_x_at) / Fold change /veh PRB3 (11715151_x_at) / RFU TUBB4B (11761932_at) / Fold change /veh TUBB4B (11761932_at) / RFU CAPN14 (11732068_a_at) / Fold change /veh CAPN14 (11732068_a_at) / RFU TMCC2 (11721928_a_at) / Fold change /veh TMCC2 (11721928_a_at) / RFU IRGQ (11745062_a_at) / Fold change /veh IRGQ (11745062_a_at) / RFU FAM174B (11720279_a_at) / Fold change /veh FAM174B (11720279_a_at) / RFU TMPRSS4 (11748680_a_at) / Fold change /veh TMPRSS4 (11748680_a_at) / RFU FAM212B (11763350_a_at) / Fold change /veh FAM212B (11763350_a_at) / RFU PLEKHG5 (11743358_a_at) / Fold change /veh PLEKHG5 (11743358_a_at) / RFU ZSCAN30 (11745921_a_at) / Fold change /veh ZSCAN30 (11745921_a_at) / RFU CMKLR1 (11741424_a_at) / Fold change /veh CMKLR1 (11741424_a_at) / RFU LOC101060620 /// MAPK8IP1 (11723275_at) / Fold change /veh LOC101060620 /// MAPK8IP1 (11723275_at) / RFU SPTSSB (11747773_x_at) / Fold change /veh SPTSSB (11747773_x_at) / RFU PRSS12 (11739890_at) / Fold change /veh PRSS12 (11739890_at) / RFU BIN1 (11741810_x_at) / Fold change /veh BIN1 (11741810_x_at) / RFU WNT11 (11732464_a_at) / Fold change /veh WNT11 (11732464_a_at) / RFU C10orf10 (11716521_a_at) / Fold change /veh C10orf10 (11716521_a_at) / RFU C5orf56 (11738089_at) / Fold change /veh C5orf56 (11738089_at) / RFU CYB561 (11721691_x_at) / Fold change /veh CYB561 (11721691_x_at) / RFU ANKRD19P (11752326_a_at) / Fold change /veh ANKRD19P (11752326_a_at) / RFU OR2T12 /// OR2T33 /// OR2T8 (11738714_s_at) / Fold change /veh OR2T12 /// OR2T33 /// OR2T8 (11738714_s_at) / RFU VCAN (11748164_a_at) / Fold change /veh VCAN (11748164_a_at) / RFU JSRP1 (11732532_at) / Fold change /veh JSRP1 (11732532_at) / RFU KRTAP10-11 (11738290_x_at) / Fold change /veh KRTAP10-11 (11738290_x_at) / RFU MYO3A (11730013_a_at) / Fold change /veh MYO3A (11730013_a_at) / RFU EBF3 (11725865_a_at) / Fold change /veh EBF3 (11725865_a_at) / RFU CAMK2N1 (11719241_x_at) / Fold change /veh CAMK2N1 (11719241_x_at) / RFU C5orf56 (11738088_a_at) / Fold change /veh C5orf56 (11738088_a_at) / RFU OLFML3 (11715873_a_at) / Fold change /veh OLFML3 (11715873_a_at) / RFU LOC100653217 /// NTM (11731650_a_at) / Fold change /veh LOC100653217 /// NTM (11731650_a_at) / RFU MAPK11 (11762145_a_at) / Fold change /veh MAPK11 (11762145_a_at) / RFU FIZ1 (11724087_x_at) / Fold change /veh FIZ1 (11724087_x_at) / RFU OASL (11726364_x_at) / Fold change /veh OASL (11726364_x_at) / RFU SOX15 (11748057_x_at) / Fold change /veh SOX15 (11748057_x_at) / RFU CD79A (11719716_a_at) / Fold change /veh CD79A (11719716_a_at) / RFU HIST1H1D (11736915_at) / Fold change /veh HIST1H1D (11736915_at) / RFU CASKIN2 (11723855_a_at) / Fold change /veh CASKIN2 (11723855_a_at) / RFU LOC730098 (11760151_x_at) / Fold change /veh LOC730098 (11760151_x_at) / RFU OR4N2 (11742367_at) / Fold change /veh OR4N2 (11742367_at) / RFU PRRT2 (11749266_a_at) / Fold change /veh PRRT2 (11749266_a_at) / RFU SNX32 (11753110_a_at) / Fold change /veh SNX32 (11753110_a_at) / RFU CDHR5 (11726645_a_at) / Fold change /veh CDHR5 (11726645_a_at) / RFU RCAN1 (11760418_a_at) / Fold change /veh RCAN1 (11760418_a_at) / RFU FAM167A (11723789_a_at) / Fold change /veh FAM167A (11723789_a_at) / RFU FAM26E (11764081_at) / Fold change /veh FAM26E (11764081_at) / RFU ISYNA1 (11749810_s_at) / Fold change /veh ISYNA1 (11749810_s_at) / RFU ACY1 (11761880_at) / Fold change /veh ACY1 (11761880_at) / RFU 11764098_at / Fold change /veh 11764098_at / RFU SAMD14 (11745864_x_at) / Fold change /veh SAMD14 (11745864_x_at) / RFU NPB (11741838_a_at) / Fold change /veh NPB (11741838_a_at) / RFU TMPRSS6 (11731388_a_at) / Fold change /veh TMPRSS6 (11731388_a_at) / RFU KRTAP10-2 (11738614_at) / Fold change /veh KRTAP10-2 (11738614_at) / RFU ARHGAP8 /// PRR5-ARHGAP8 (11727945_x_at) / Fold change /veh ARHGAP8 /// PRR5-ARHGAP8 (11727945_x_at) / RFU KRTAP5-7 /// NADSYN1 (11734609_at) / Fold change /veh KRTAP5-7 /// NADSYN1 (11734609_at) / RFU RASL12 (11751679_a_at) / Fold change /veh RASL12 (11751679_a_at) / RFU CDKN2B (11736163_a_at) / Fold change /veh CDKN2B (11736163_a_at) / RFU PRF1 (11729649_at) / Fold change /veh PRF1 (11729649_at) / RFU, ZNF638 /// ZNF638-IT1 / Fold change vs veh, ZNF638 /// ZNF638-IT1 / RFU, PANK3 / Fold change vs veh, PANK3 / RFU, SH3YL1 / Fold change vs veh, SH3YL1 / RFU, ZEB2 / Fold change vs veh, ZEB2 / RFU, NRIP1 / Fold change vs veh, NRIP1 / RFU, PTTG1IP / Fold change vs veh, PTTG1IP / RFU, CAPN2 / Fold change vs veh, CAPN2 / RFU, MED14 / Fold change vs veh, MED14 / RFU, SNORA58 / Fold change vs veh, SNORA58 / RFU, C1orf63 / Fold change vs veh, C1orf63 / RFU, LRRFIP1 / Fold change vs veh, LRRFIP1 / RFU, NDUFAF7 / Fold change vs veh, NDUFAF7 / RFU, SLC12A2 / Fold change vs veh, SLC12A2 / RFU, IBTK / Fold change vs veh, IBTK / RFU, ESF1 / Fold change vs veh, ESF1 / Fold change vs veh, TMEM50B / RFU, TAOK1 / Fold change vs veh, TAOK1 / RFU, ACBD3 / Fold change vs veh, ACBD3 / RFU, TMA16 / Fold change vs veh, TMA16 / RFU, RWDD3 / Fold change vs veh, RWDD3 / RFU, BCAT1 / Fold change vs veh, BCAT1 / RFU, EDEM3 / Fold change vs veh, EDEM3 / RFU, TMEM33 / Fold change vs veh, TMEM33 / RFU, WDR75 / Fold change vs veh, WDR75 / RFU, AHCTF1 / Fold change vs veh, AHCTF1 / RFU, TFRC / Fold change vs veh, TFRC / RFU, ZDHHC17 / Fold change vs veh, ZDHHC17 / RFU, NOM1 / Fold change vs veh, NOM1 / RFU, ARL8B / Fold change vs veh, ARL8B / RFU, ZBTB11 / Fold change vs veh, ZBTB11 / RFU, TAMM41 / Fold change vs veh, TAMM41 / RFU, KIAA1704 /// LOC100996395 / Fold change vs veh, KIAA1704 /// LOC100996395 / RFU, ING1 / Fold change vs veh, ING1 / RFU, TRMT61B / Fold change vs veh, TRMT61B / RFU, FUBP3 / Fold change vs veh, FUBP3 / RFU, TP53 / Fold change vs veh, TP53 / RFU, TNKS2 / Fold change vs veh, TNKS2 / RFU, ZFP14 / Fold change vs veh, ZFP14 / RFU, ACTR2 / Fold change vs veh, ACTR2 / RFU, PPP3R1 / Fold change vs veh, PPP3R1 / RFU, PIK3R1 / Fold change vs veh, PIK3R1 / RFU, HNRNPA1 / Fold change vs veh, HNRNPA1 / RFU, RNF170 / Fold change vs veh, RNF170 / RFU, ZNF28 / Fold change vs veh, ZNF28 / RFU, RNGTT / Fold change vs veh, RNGTT / RFU, OGT / Fold change vs veh, OGT / RFU, BRD1 / Fold change vs veh, BRD1 / RFU, MARS / Fold change vs veh, MARS / RFU, ZNF655 / Fold change vs veh, ZNF655 / RFU, FAHD1 / Fold change vs veh, FAHD1 / RFU, BDP1 / Fold change vs veh, BDP1 / RFU, LRRCC1 / Fold change vs veh, LRRCC1 / RFU, ARID1A / Fold change vs veh, ARID1A / RFU, ZNF146 / Fold change vs veh, ZNF146 / RFU, ZNF330 / Fold change vs veh, ZNF330 / RFU, GPN3 / Fold change vs veh, GPN3 / RFU, C9orf123 / Fold change vs veh, C9orf123 / RFU, N4BP2L2 / Fold change vs veh, N4BP2L2 / RFU, ARFIP1 / Fold change vs veh, ARFIP1 / RFU, FAM179B / Fold change vs veh, FAM179B / RFU, BCL10 / Fold change vs veh, BCL10 / RFU, UHRF1BP1L / Fold change vs veh, UHRF1BP1L / RFU, BET1 / Fold change vs veh, BET1 / RFU, CNOT2 / Fold change vs veh, CNOT2 / RFU, ZNF268 / Fold change vs veh, ZNF268 / Fold change vs veh, ZNF507 / RFU, DGCR2 / Fold change vs veh, DGCR2 / RFU, WDSUB1 / Fold change vs veh, WDSUB1 / Fold change vs veh, HSP90B1 /// MIR3652 / RFU, ADSS / Fold change vs veh, ADSS / RFU, GK / Fold change vs veh, GK / RFU, ZNF148 / Fold change vs veh, ZNF148 / RFU, TAF9 / Fold change vs veh, TAF9 / RFU, SLC1A5 / Fold change vs veh, SLC1A5 / RFU, SLMO2 / Fold change vs veh, SLMO2 / RFU, ABCC4 / Fold change vs veh, ABCC4 / RFU, LOC101060439 /// RAP1B / Fold change vs veh, LOC101060439 /// RAP1B / RFU, RFX7 / Fold change vs veh, RFX7 / RFU, GTPBP10 / Fold change vs veh, GTPBP10 / RFU, CNEP1R1 / Fold change vs veh, CNEP1R1 / RFU, BIVM-ERCC5 /// ERCC5 / Fold change vs veh, BIVM-ERCC5 /// ERCC5 / RFU, ILF3 / Fold change vs veh, ILF3 / RFU 11762660_at / Fold change /veh 11762660_at / RFU VCAN (11757783_s_at) / Fold change /veh VCAN (11757783_s_at) / RFU DDX43 (11728927_at) / Fold change /veh DDX43 (11728927_at) / RFU KRT8 (11758188_x_at) / Fold change /veh KRT8 (11758188_x_at) / RFU NKD1 (11759106_at) / Fold change /veh NKD1 (11759106_at) / RFU SRD5A1 (11742802_a_at) / Fold change /veh SRD5A1 (11742802_a_at) / RFU TPSAB1 /// TPSB2 (11721975_s_at) / Fold change /veh TPSAB1 /// TPSB2 (11721975_s_at) / RFU GSTM3 (11746129_a_at) / Fold change /veh GSTM3 (11746129_a_at) / RFU IL23R (11737362_x_at) / Fold change /veh IL23R (11737362_x_at) / RFU TMEM51 (11727254_a_at) / Fold change /veh TMEM51 (11727254_a_at) / RFU PIWIL2 (11732686_x_at) / Fold change /veh PIWIL2 (11732686_x_at) / RFU ORM1 (11744905_x_at) / Fold change /veh ORM1 (11744905_x_at) / RFU CCDC152 (11743942_at) / Fold change /veh CCDC152 (11743942_at) / RFU ECM1 (11717891_a_at) / Fold change /veh ECM1 (11717891_a_at) / RFU IL23R (11748794_a_at) / Fold change /veh IL23R (11748794_a_at) / RFU TNFAIP8L3 (11732012_x_at) / Fold change /veh TNFAIP8L3 (11732012_x_at) / RFU MBOAT4 (11741988_at) / Fold change /veh MBOAT4 (11741988_at) / RFU 11764193_at / Fold change /veh 11764193_at / RFU TMEM53 (11763286_at) / Fold change /veh TMEM53 (11763286_at) / RFU MAGEB2 (11727129_at) / Fold change /veh MAGEB2 (11727129_at) / RFU TMEM200A (11744735_a_at) / Fold change /veh TMEM200A (11744735_a_at) / RFU CCDC152 (11751479_a_at) / Fold change /veh CCDC152 (11751479_a_at) / RFU FAM211A (11726209_a_at) / Fold change /veh FAM211A (11726209_a_at) / RFU RGS16 (11746705_a_at) / Fold change /veh RGS16 (11746705_a_at) / RFU VCAN (11755009_s_at) / Fold change /veh VCAN (11755009_s_at) / RFU RHOB (11743442_s_at) / Fold change /veh RHOB (11743442_s_at) / RFU RGS16 (11720943_a_at) / Fold change /veh RGS16 (11720943_a_at) / RFU RGS16 (11720944_at) / Fold change /veh RGS16 (11720944_at) / RFU, VPS4B / Fold change vs veh, VPS4B / RFU, CREB1 / Fold change vs veh, CREB1 / RFU, DNAJC13 / Fold change vs veh, DNAJC13 / RFU, GNAQ / Fold change vs veh, GNAQ / RFU, CDK5R1 / Fold change vs veh, CDK5R1 / RFU, ZRANB3 / Fold change vs veh, ZRANB3 / RFU, CUL4A / Fold change vs veh, CUL4A / RFU, CCNY / Fold change vs veh, CCNY / RFU, UFL1 / Fold change vs veh, UFL1 / RFU, COG3 / Fold change vs veh, COG3 / RFU, DIAPH2 / Fold change vs veh, DIAPH2 / RFU, SKA2 / Fold change vs veh, SKA2 / RFU, AFF3 / Fold change vs veh, AFF3 / RFU, LMF1 / Fold change vs veh, LMF1 / RFU, IPO11 / Fold change vs veh, IPO11 / RFU, DFFB / Fold change vs veh, DFFB / RFU, FOXP1 / Fold change vs veh, FOXP1 / RFU, CARD8 / Fold change vs veh, CARD8 / RFU, STRN3 / Fold change vs veh, STRN3 / RFU, ADK / Fold change vs veh, ADK / RFU, RASSF2 / Fold change vs veh, RASSF2 / RFU, WIPF1 / Fold change vs veh, WIPF1 / RFU, LARP1B / Fold change vs veh, LARP1B / RFU, RASA1 / Fold change vs veh, RASA1 / RFU, RB1 / Fold change vs veh, RB1 / RFU, PPFIA1 / Fold change vs veh, PPFIA1 / RFU, MAT2A / Fold change vs veh, MAT2A / RFU, CCT5 / Fold change vs veh, CCT5 / RFU, WDR92 / Fold change vs veh, WDR92 / RFU, CUX1 / Fold change vs veh, CUX1 / RFU, TTC7A / Fold change vs veh, TTC7A / RFU, TMEM135 / Fold change vs veh, TMEM135 / RFU, DEPTOR / Fold change vs veh, DEPTOR / RFU, CPM / Fold change vs veh, CPM / RFU, DNAJB6 / Fold change vs veh, DNAJB6 / RFU, CACNA2D3 / Fold change vs veh, CACNA2D3 / RFU, DTX4 / Fold change vs veh, DTX4 / RFU, TFCP2 / Fold change vs veh, TFCP2 / RFU, GMCL1 /// GMCL1P1 / Fold change vs veh, GMCL1 /// GMCL1P1 / RFU, AEBP2 / Fold change vs veh, AEBP2 / RFU, SNHG1 /// SNORD22 /// SNORD25 /// SNORD26 /// SNORD27 /// SNORD28 /// SNORD29 /// SNORD31 / Fold change vs veh, SNHG1 /// SNORD22 /// SNORD25 /// SNORD26 /// SNORD27 /// SNORD28 /// SNORD29 /// SNORD31 / Fold change (Aza/veh), C12orf56 (ProbeSet 11735607_a_at) / Fold change (ACY-1035/veh), C12orf56 (ProbeSet 11735607_a_at) / Fold change (Aza/veh), FGFR1OP (ProbeSet 11751329_s_at) / Fold change (ACY-1035/veh), FGFR1OP (ProbeSet 11751329_s_at) / Fold change (Aza/veh), VPS36 (ProbeSet 11739960_a_at) / Fold change (ACY-1035/veh), VPS36 (ProbeSet 11739960_a_at) / RFU SYPL1 (11715823_x_at) / Fold change /veh SYPL1 (11715823_x_at) / RFU IGFBP7 (11715501_s_at) / Fold change /veh IGFBP7 (11715501_s_at) / RFU REEP3 (11722064_at) / Fold change /veh REEP3 (11722064_at) / RFU IGLL1 (11728026_x_at) / Fold change /veh IGLL1 (11728026_x_at): dose or concentration left out as unconfirmed.

`Nc1ncn([C@@H]2O[C@H](CO)[C@@H](O)[C@H]2O)c(=O)n1` [azacitidine]: the “Fold change vs veh, RASA1” value was determined as 0.72.
